Our source for the Kd values is PubChem BioAssay AID1648 (Sanford-Burnham Center for Chemical Genomics, 2009).

Active and inactive are the calls of the source. No rule for the calls is given here.

Sequence of Serine/threonine-protein kinase mTOR (Homo sapiens) (P42345 2015-2114): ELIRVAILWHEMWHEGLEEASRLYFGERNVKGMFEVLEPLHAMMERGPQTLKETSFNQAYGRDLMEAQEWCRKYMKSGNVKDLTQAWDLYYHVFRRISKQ

The assay has as its target Serine/threonine-protein kinase mTOR (Homo sapiens) (UniProt P42345). In words: mTOR FRB domain ligand binding – biophysical, NMR (AID 1648). The following applies: NMR binding to FRB domain, chemical shift.
Consider `CCn1cnc2scc(-c3ccccc3)c2c1=O`, for which the Kd was > 4 mM (inactive).

Consider `CN(C)CCNC(CC(=O)Nc1ccccc1)C(=O)O` (centres undefined), for which the Kd was > 4 mM (inactive).

Regarding `CC1=NN(C(N)=S)C(C)(C)C1`, the Kd is > 4 mM (inactive).

`NC(=O)C1CCN(Cc2ccccc2)CC1`: the Kd was > 4 mM (inactive).

`NC(=O)CSc1nnc2ccc(-c3ccco3)nn12`: the Kd was > 4 mM (inactive).

Turning to `O=C(O)C1CCCN1Cc1c[nH]c2ccccc12` (centres undefined), the Kd is > 4 mM (inactive).

Consider `NC(CC(=O)O)C(=O)Nc1ccc(Cl)cc1` (centres undefined), for which the Kd was > 4 mM (inactive).

As to `Nc1ccc2[nH]ncc2c1`, the Kd was > 4 mM (inactive).

Regarding `c1ccc(-n2nnnc2Oc2cccc3cccnc23)cc1`, the Kd is > 4 mM (inactive).

As for `O=C(Nc1ccc2ccccc2c1)c1cnccn1`, the Kd is > 4 mM (inactive).

In the case of `CC(=O)Nc1ccc(NC2SC(=O)NC2=O)cc1` (centres undefined), the Kd was > 4 mM (inactive).

With `CCOC(=O)N1CCCC1c1cccnc1` (centres undefined), the Kd is > 4 mM (inactive).

With `COc1ccc2c(C)cc(=O)oc2c1`, the Kd is > 4 mM (inactive).

On to `COc1cc2[nH]c(=S)n(C)c(=O)c2cc1OC`, for which the Kd was > 4 mM (inactive).

For the compound `O=C(NC1CCS(=O)(=O)C1)c1cccs1` (centres undefined), the Kd was > 4 mM (inactive).

With `Nc1[nH]c(=S)[nH]c(=O)c1-c1ccccc1`, the Kd was > 4 mM (inactive).

As for `CCCCCCCCCCCC1=C(O)C(=O)C=C(O)C1=O`, the Kd was > 4 mM (inactive).

Take `Cc1nn(C)c(C)c1C(=O)O`: the Kd was > 4 mM (inactive).

For the compound `c1ccc(-n2ncc3c(NCc4ccco4)ncnc32)cc1`, the Kd is > 4 mM (inactive).

As to `COc1cc(O)c(C)c(O)c1`, the Kd was > 4 mM (inactive).

Consider `Nc1nc(N)nc(N2C(=O)c3ccccc3C2=O)n1`, for which the Kd was > 4 mM (inactive).

With `COc1ccc(O)c(-c2cn[nH]c2-c2cccs2)c1`, the Kd is > 4 mM (inactive).

As to `S=c1oc(-c2ccncc2)nn1CCc1ccncc1`, the Kd is > 4 mM (inactive).

In the case of `O=C1CN(c2ccccc2)CC(=O)N1`, the Kd was > 4 mM (inactive).

For the compound `COc1c(-c2coc3cc4c(cc3c2=O)CC(O)C(C)(C)O4)ccc2c1C=CC(C)(C)O2` (centres undefined), the Kd is > 4 mM (inactive).

With `COC(=O)/C(C)=C\CC12OC(C)(C)C3CC(C=C4C(=O)c5c(OC)c6c(c(CC=C(C)C)c5OC431)OC(C)(CCC=C(C)C)C=C6)C2=O` (centres undefined), the Kd was > 4 mM (inactive).

Take `Cn1c(-c2ccccc2F)n[nH]c1=S`: the Kd was > 4 mM (inactive).

Regarding `Nc1cccc(S(=O)(=O)N2CCCC2)c1`, the Kd is > 4 mM (inactive).

Consider `O=C(O)CCn1cncn1`, for which the Kd was > 4 mM (inactive).

With `O=C1CC(=O)N(c2ccccc2)c2ccccc21`, the Kd is > 4 mM (inactive).

On to `CC(C)(C)c1cc(N)n[nH]1`, for which the Kd is > 4 mM (inactive).

As to `CC1CCc2cc(F)ccc2N1C(=O)c1ccc(=O)[nH]n1` (centres undefined), the Kd was > 4 mM (inactive).

As to `COc1cc2c(cc1OC)[C@@H]1C(=O)c3ccc4c(c3O[C@@H]1CO2)CC(C(C)C)O4` (some centres undefined), the Kd is > 4 mM (inactive).

Regarding `Cn1c(SCCC(=O)O)nnc1-c1cccnc1`, the Kd is > 4 mM (inactive).

`O=C(O)c1cnc2sc3ccccc3n2c1=O`: the Kd is > 4 mM (inactive).

With `O=C1CNCc2[nH]c3ccccc3c2N1c1ccccc1`, the Kd was > 4 mM (inactive).

In the case of `Cc1noc(C)c1C(=O)NC1=NCCS1`, the Kd is > 4 mM (inactive).

On to `CSc1ccccc1NC(=O)c1ccoc1C`, for which the Kd was > 4 mM (inactive).

On to `CCC1(CC)C(=O)NC(=O)N=C1N`, for which the Kd was > 4 mM (inactive).

Consider `C/C=C/C=N/NC(=O)c1ccc(=O)n(C)c1`, for which the Kd was > 4 mM (inactive).

Take `COc1ccc(C2(CN)CCOCC2)cc1OC`: the Kd was > 4 mM (inactive).

In the case of `Nc1ccc(S(=O)(=O)Nc2nccs2)cc1`, the Kd is > 4 mM (inactive).

On to `N=c1c2c3c(sc2ncn1N)CCCC3`, for which the Kd is > 4 mM (inactive).

Take `O=C1CCCC(=O)N1c1ccc(O)cc1`: the Kd is > 4 mM (inactive).

As to `Cc1cc(O)c(C=O)c(O)c1C(=O)O`, the Kd was > 4 mM (inactive).

With `COc1ccc(N2C(=O)CCC2=O)c(OC)c1`, the Kd was > 4 mM (inactive).

For the compound `Nc1cc(C(=O)N2CCCC2)cc(C(=O)N2CCCC2)c1`, the Kd was > 4 mM (inactive).

With `CC(=O)Nc1cc(C(N)=O)cc(C(N)=O)c1`, the Kd was > 4 mM (inactive).

Consider `CCOC(=O)C1CCNCC1`, for which the Kd is > 4 mM (inactive).

As for `CN(C)C(=O)Oc1cccc(-c2nnco2)c1`, the Kd was > 4 mM (inactive).

Regarding `CC(=O)O[C@@H]1CC2C(C)(C)[C@H](O)C=C[C@]2(C)C2CC[C@@]3(C)[C@H](c4ccoc4)OC(=O)C4OC43[C@@]21C` (some centres undefined), the Kd was > 4 mM (inactive).

`O=C(Nc1ccc(-c2nnco2)cc1)c1ccccc1`: the Kd was > 4 mM (inactive).

Take `O=C(O)CCC(=O)Nc1ccccn1`: the Kd was > 4 mM (inactive).

On to `CCC(C)C(NC)C(=O)O` (centres undefined), for which the Kd is > 4 mM (inactive).

Regarding `c1ccc(SCc2nc(-c3cccnc3)no2)cc1`, the Kd was > 4 mM (inactive).

Turning to `O=c1[nH]c2ccccc2c(=O)n1CCCO`, the Kd was > 4 mM (inactive).

As to `NC1=NC(=O)CC(C(=O)Nc2ccccc2)S1` (centres undefined), the Kd is > 4 mM (inactive).

With `NC(=O)c1c(Cl)nsc1-c1ccccc1Cl`, the Kd was > 4 mM (inactive).

Take `O=C1CCCN1C(=O)c1ccc(F)cc1`: the Kd was > 4 mM (inactive).

Regarding `CC(=O)c1c(O)c(C)c(O)c2c1OC1=CC(=O)C(C(C)=O)C(=O)C12C` (centres undefined), the Kd is > 4 mM (inactive).

For the compound `CC(C)C(=O)NC(=S)N1CCOCC1`, the Kd was > 4 mM (inactive).

As for `CNC(=S)N1CCN(C(=O)c2ccco2)CC1`, the Kd was > 4 mM (inactive).

Turning to `Oc1ccccc1N=Cc1cccnc1`, the Kd is > 4 mM (inactive).

In the case of `Cc1cc(=O)c2c(O)cc(O)c(C)c2o1`, the Kd was > 4 mM (inactive).

In the case of `Cc1ccccc1NC(=O)CC1NCCNC1=O` (centres undefined), the Kd is > 4 mM (inactive).

In the case of `COc1ccc(-c2coc3cc(O)ccc3c2=O)cc1`, the Kd is > 4 mM (inactive).

Take `O=c1c(-c2cc(O)c(O)c(O)c2)coc2cc(O)c(O)c(O)c12`: the Kd was > 4 mM (inactive).

Turning to `CCn1cnc2sc(C(=O)O)c(C)c2c1=O`, the Kd is > 4 mM (inactive).

Turning to `COc1cc(C(=S)N2CCCC2)cc(Cl)c1O`, the Kd is > 4 mM (inactive).

`Nc1cc(=O)[nH]c(SCC(=O)Nc2nccs2)n1`: the Kd is > 4 mM (inactive).

For the compound `COc1cc(C(=S)N2CCOCC2)ccc1O`, the Kd was > 4 mM (inactive).

Turning to `O=C(O)C1CSC2(CCCCC2)N1` (centres undefined), the Kd is > 4 mM (inactive).

On to `CCCCCCCCCCCCCCC(C(=O)OC)C(O)(CC(=O)OC)C(=O)OC` (centres undefined), for which the Kd is > 4 mM (inactive).

For the compound `Cn1c(SCC(N)=O)nnc1-c1c[nH]c2ccccc12`, the Kd was > 4 mM (inactive).

As to `Cc1nc2cc(NC(=O)Nc3nccs3)ccc2n1C`, the Kd was > 4 mM (inactive).

Turning to `COC(=O)c1ccc2nsnc2c1`, the Kd was > 4 mM (inactive).

For the compound `CC(=O)N1CCN(c2ccc(O)cc2)CC1`, the Kd was > 4 mM (inactive).

Turning to `Cc1ccc(/C=C2/C(=O)N=C(N)N2C)s1`, the Kd was > 4 mM (inactive).

As for `CC(=O)Nc1cccc(N2CCCC2=O)c1`, the Kd was > 4 mM (inactive).

As for `CC(C)CCCC(C)C1CCC2C3CC(=O)[C@H]4C[C@@H](O)CC[C@]4(C)C3CC[C@]12C` (some centres undefined), the Kd was > 4 mM (inactive).

Take `CN(C)N1C(=O)C2CCCCC2C1=O` (centres undefined): the Kd is > 4 mM (inactive).

With `CCC(C)C(=O)O[C@H]1[C@H](O)C2C(CN3CC(C)CCC3[C@@]2(C)O)C2C[C@]34O[C@]5(O)C(OC(=O)C(C)(O)C(C)O)CC[C@@]3(C)C5C(OC(C)=O)[C@@H](OC(C)=O)C4[C@@]21O` (some centres undefined), the Kd is > 4 mM (inactive).

Consider `Cc1occc(=O)c1O`, for which the Kd was > 4 mM (inactive).

As to `O=P(c1ccccc1)(c1ccccc1)C1CCOCC1`, the Kd was > 4 mM (inactive).

As to `CN1CCN(c2cc(=O)n(C)c(=O)[nH]2)CC1`, the Kd is > 4 mM (inactive).

Regarding `CN1C2CCC1CC(OC(=O)C(CO)c1ccccc1)C2` (centres undefined), the Kd was > 4 mM (inactive).

Take `N#Cc1cccc(Cn2nnc(-c3ccccc3)n2)c1`: the Kd is > 4 mM (inactive).

For `O=C(Nc1nccs1)c1cccnc1`, the Kd was > 4 mM (inactive).

Consider `Nc1ncc2[nH]cnc2n1`, for which the Kd is > 4 mM (inactive).

Take `Cc1noc(C)c1C(=O)Nc1sc(C)c(C)c1C#N`: the Kd was > 4 mM (inactive).

With `COc1cc(OC)c2c(c1)O[C@H](c1ccc(OC)c(OC)c1)[C@@H](O)C2`, the Kd was > 4 mM (inactive).

Turning to `CCOC(=O)c1cnn2ccccc12`, the Kd is > 4 mM (inactive).

Turning to `Nc1ccc2c(c1)OCCO2`, the Kd is > 4 mM (inactive).

As to `Cc1ccccc1NC(=O)C1CCC(=O)N1` (centres undefined), the Kd was > 4 mM (inactive).

As for `NCc1cc2ccccc2s1`, the Kd was > 4 mM (inactive).

For `CC(=O)Nc1cc(C(F)(F)F)ccc1N1CCOCC1`, the Kd was > 4 mM (inactive).

As for `Cc1ccc(NC(=O)C2CCCNC2=O)nc1` (centres undefined), the Kd is > 4 mM (inactive).

For `COc1ccc(-c2ccc(SCC(N)=O)nn2)cc1`, the Kd is > 4 mM (inactive).

Consider `O=S1(=O)C=CC(N2CCCCC2)C1` (centres undefined), for which the Kd is > 4 mM (inactive).

In the case of `O=C1CN(C(=O)c2ccccc2)c2ccccc2N1`, the Kd was > 4 mM (inactive).

With `O=C(Nc1cccnc1)c1c(F)cccc1F`, the Kd is > 4 mM (inactive).

Consider `COc1ccc2ccc(=O)oc2c1`, for which the Kd is > 4 mM (inactive).

On to `CC(=O)Oc1c2c(c3c(c1CC=C(C)C)O[C@]14C(=C[C@@H]5CC1C(C)(C)OC4(C/C=C(\C)C(=O)O)C5=O)C3=O)OC(C)(CCC=C(C)C)C=C2` (some centres undefined), for which the Kd was > 4 mM (inactive).

As to `CN1CCN(CC(O)c2ccccc2)CC1` (centres undefined), the Kd was > 4 mM (inactive).

One may read the Kd as the concentration at which binding is half-saturated.
